Reference: patent publication US9247759B2, “Identification of human T2R receptors that respond to bitter compounds that elicit the bitter taste in compositions, and the use thereof in assays to identify compounds that inhibit (block) bitter taste in compositions and use thereof” (SENOMYX, INC., priority 2007, dated 2016)
Like-named read-outs stand apart in the source and are kept apart here.

Legend:
hT2R8 = hT2R8 (Homo sapiens (Human), UniProt Q9NYW2); assay: hT2R8 antagonist high-throughput FLIPR assay, stable cell line with G16g44, agonist andrographolide; format: cell-based
Sequence of hT2R8 (Q9NYW2 whole entry): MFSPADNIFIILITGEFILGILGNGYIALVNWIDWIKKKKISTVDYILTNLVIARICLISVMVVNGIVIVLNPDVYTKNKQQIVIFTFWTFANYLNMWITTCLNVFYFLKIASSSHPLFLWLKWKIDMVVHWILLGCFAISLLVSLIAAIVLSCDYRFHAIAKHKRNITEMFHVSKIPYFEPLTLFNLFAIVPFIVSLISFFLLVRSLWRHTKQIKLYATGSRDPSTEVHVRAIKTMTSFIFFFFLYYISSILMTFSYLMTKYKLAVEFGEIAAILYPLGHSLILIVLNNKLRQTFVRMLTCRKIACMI
How it was run: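 HEK293 cells stably co-expressing hT2R8 and chimeric G16g44, read on FLIPR. Test compounds added together with andrographolide (200 μM), which drives the receptor to 70–80% of maximal activity; antagonism seen as reduced agonist response.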

[1] = read-out: IC50 on hT2R8 bitter receptor
[2] = table after Example 10-97, read-out: hT2R8 IC50

IC50 (hT2R8; [1]) [nM]	melting point [°C]	IC50 (hT2R8; [2]) [nM]	SMILES
140	95 to 96	139	Cc1noc(C)c1Cn1cc(N2C(=O)CN(CCc3ccccc3)C2=O)cn1 [Example 10-78, 3-(1-((3,5-dimethylisoxazol-4-yl)methyl)-1H-pyrazol-4-yl)-1-phenethylimidazolidine-2,4-dione]
570	135 to 137		Cc1noc(C)c1Cn1cc(NC(=O)c2ccccn2)cn1 [Example 4-1, N-(1-((3,5-dimethylisoxazol-4-yl)methyl)-1H-pyrazol-4-yl)picolinamide]
20	124 to 126	19	Cc1noc(C)c1Cn1cc(-n2c(=O)n(C)n(Cc3ccccc3)c2=O)cn1 [Example 10-65, 1-Benzyl-4-(1-((3,5-dimethylisoxazol-4-yl)methyl)-1H-pyrazol-4-yl)-2-methyl-1,2,4-triazolidine-3,5-dione]

SMILES	IC50 (hT2R8; [1]) [nM]	melting point [°C]	IC50 (hT2R8; [2]) [nM]
COc1cccc(C(=O)Nc2cnn(Cc3c(C)noc3C)c2)c1 [Example 4-7, N-(1-((3,5-dimethylisoxazol-4-yl)methyl)-1H-pyrazol-4-yl)-3-methoxybenzamide]	390	127 to 129	
